The values that follow come from US7790762B2, “Compounds and methods for thiol-containing compound efflux and cancer treatment” (National Jewish Health, priority 2002, dated 2010).

Like-named read-outs stand apart in the source and are kept apart here. Some results are limits rather than exact numbers.

Holding throughout (assay type): cell-based, human
Data set [1] concerns HL-60 cells. The data set is described as follows: Intracellular GSH levels by HPLC-EC in HL-60 cells. The conditions noted are these: for effect on intracellular GSH (words): HL-60 cells; for activity at 50 µM / activity at 75 µM / activity at 25 µM: Homo sapiens, read-out: Int. GSH % con.; for activity at 50 µM: HL-60, 50 μM; for activity at 50 µM / activity at 75 µM / activity at 25 µM / Int. GSH % con.: 24 hours treatment. As for the experimental part: (§1) Cell lines and culture conditions. Human lung epithelial cancer (A549), human leukemia HL-60 and human prostate (PC-3) tumor cells were purchased from ATCC (Manassas, Va.). A549 and PC-3 cells were grown in Ham's F12 medium (F12) and Kaighn's modification of Ham's F12 medium (F12K) with 2 mM L-glutamine (ATCC), respectively, supplemented with 10% fetal bovine serum (FBS) and 5% pen/strep (10,000 unit, Cellgro). HL-60 cells were grown in Iscove's modified Dulbecco's medium with 4 mM L-glutamine (ATCC) supplemented with 20% FBS and 5% pen/strep. Cell were grown in T-75 flask at 37° C. and 5% CO2 air atmosphere and in 24-well plates for GSH levels and LDH release measurements.
(§2) Intracellular levels of GSH. Intracellular GSH levels can be determined by HPLC-EC. Cultured cells from 24-well plates were washed once with 1 ml of PBS and then re-suspended in 0.5 ml of distilled water with 40 μM of digitonin (2 mM stock solution in DMSO) for 30 min at room temperature. Then, 50 μl of 10% meta-phosphoric acid were added (1% final concentration), the samples were sonicated for 2 min, centrifuged at 20,000 g for 10 min, and 0.2 ml of supernatant placed in vials for HPLC analysis. […] The flow rate was […]. The retention time for GSH in these conditions was 7.5 min. The HPLC instrument was from ESA, Inc. (Chelmsford, Mass.), equipped with an autosampler (model 540) and a Coul array detector (model 5600A). The potential applied was +0.75 V vs. H/Pd electrode, and the injection volume 5 μl.

Data set [2] relates to A549 cells. The data set is described as follows: Intracellular GSH levels by HPLC-EC in A549 cells. Conditions: for activity at 50 µM / activity at 75 µM / activity at 25 µM: Homo sapiens; for activity at 25 µM: A549, 25 μM. Here is the method:
as §1, §2

Data set [3] relates to A549 cells. The data set is described as follows: Cytotoxicity as LDH release in A549 cells. Conditions: A549, 75 μM, 48 hours treatment; for LDH release, % of control at 75 µM: Homo sapiens, read-out: LDH rel. % con. As for the experimental part:
as §1
(§3) Assessment of cytotoxicity. In one exemplary method, membrane integrity of A549, HL-60 and PC-3 cells was used as an index of drug-induced cytotoxicity, and was assessed by monitoring the release of cytosolic lactate dehydrogenase (LDH). LDH activity was measured in the culture medium and cell lysates (50 mM HEPES, Triton X-100 0.5%, pH 7) using a plate reader format as previously described (41). Briefly, 5 μl of cell culture supernatant and lysates were incubated with 0.24 mM NADH in a Tris/NaCl pH 7.2 buffer in 96-well plates for 5 min at 25° C. The reaction was started by the addition of 9.8 mM pyruvate and the consumption of NADH followed at 340 nm for 5 min at 30° C. Percent LDH release was calculated by the following: (supernatant LDH/supernatant LDH+lysate LDH)×100.
(Release of lactate dehydrogenase indicates damage to the cell membrane.)

Data set [4] has as its system PC-3 cells. The data set is described as follows: Cytotoxicity as LDH release in PC-3 cells. The conditions noted are these: PC-3, 50 μM, 48 hours treatment; for LDH release, % of control at 50 µM: Homo sapiens, read-out: LDH rel. % con. Here is the method:
as §1, §3

Data set [5] deals with HL-60 cells. The data set is described as follows: Cytotoxicity as LDH release in HL-60 cells. Here is the method:
as §1, §3

Data set [6] deals with PC-3 cells. The data set is described as follows: Intracellular GSH levels by HPLC-EC in PC-3 cells. The conditions noted are these: for activity at 50 µM / activity at 25 µM: Homo sapiens, read-out: Int. GSH % con.; for activity at 50 µM / activity at 25 µM / Int. GSH % con.: 24 hours treatment. As for the experimental part:
as §1, §2

[7] abbreviates: A549, 50 μM, 24 hours treatment, read-out: Int. GSH % con.
The mark [8] stands for this setting: Homo sapiens, HL-60, 50 μM, 48 hours treatment, read-out: LDH rel. % con.
The mark [9] stands for this setting: A549, 75 μM, 24 hours treatment, read-out: Int. GSH % con.
[10] abbreviates: 2 h, read-out: Intracellular GSH levels, % compared to control.
Where [11] appears, read: 24 hours treatment, read-out: Int. GSH % con.

On to `O=c1c(O)c(-c2ccc(O)c(O)c2)oc2cc(O)ccc12` [Fisetin], for which the “effect on intracellular GSH (words)” value in the data set with HL-60 cells [1] is given as “relatively effective for depleting GSH”. For the same compound, the activity at 50 µM in the data set with HL-60 cells [1] came out at 16%; with A549 cells [2] (setting [7]), 50%; in the data set on PC-3 cells [6] (PC-3, 50 μM) it was 100%. Besides, the LDH release, % of control at 75 µM with A549 cells [3] is 267%. In addition, the LDH release, % of control at 50 µM in the data set on PC-3 cells [4] was found to be 109%; in the data set on HL-60 cells [5] (setting [8]) it was 166%. In the data set on HL-60 cells [5] (HL-60 cells), the “toxicity” value is listed as “toxic”.

Regarding `Oc1cc(O)c2cc(O)c(-c3ccc(O)c(O)c3)[o+]c2c1` [Cyanidin], the activity at 75 µM with HL-60 cells [1] (HL-60, 75 μM) stood at 95%; with A549 cells [2] (setting [9]), 82%. Further, the LDH release, % of control at 75 µM in the data set with A549 cells [3] was found to be 110%. The LDH release, % of control at 50 µM with PC-3 cells [4] was 93%; with HL-60 cells [5] (setting [8]) it was 110%. For the same compound, the activity at 50 µM in the data set with PC-3 cells [6] (PC-3, 50 μM) turned out to be 120%.

As for `O=c1c(O)c(-c2ccc(O)cc2O)oc2cc(O)cc(O)c12` [Morin], the activity at 75 µM in the data set with HL-60 cells [1] (HL-60, 75 μM) worked out at 86%; with A549 cells [2] (setting [9]) it was 72%. Also, the LDH release, % of control at 75 µM with A549 cells [3] worked out at 112%. The LDH release, % of control at 50 µM in the data set on PC-3 cells [4] came to 80%; in the data set with HL-60 cells [5] (setting [8]), 97%. Also, in the data set on PC-3 cells [6] (PC-3, 50 μM), the activity at 50 µM amounted to 125%. In addition, in the data set with PC-3 cells [6] (PC-3 cells, 50-75 μM), the “effect on intracellular GSH (words)” value is reported as “stimulated an increase in intracellular GSH”.

On to `Oc1ccc(C=Cc2cc(O)cc(O)c2)cc1` [Resveratrol], for which the “effect on intracellular GSH (words)” value with HL-60 cells [1] was “found effective in HL-60 cells”. Besides, the activity at 25 µM was 61% in the data set with HL-60 cells [1] (HL-60, 25 μM) and 108% in the data set with PC-3 cells [6] (PC-3, 25 μM). For the same compound, the activity at 75 µM in the data set on A549 cells [2] (setting [9]) worked out at 64%. In addition, in the data set on A549 cells [3], the LDH release, % of control at 75 µM turned out to be 249%. The LDH release, % of control at 50 µM in the data set with PC-3 cells [4] turned out to be 135%; in the data set with HL-60 cells [5] (setting [8]), 143%.

As for `O=c1cc(-c2ccccc2)oc2cc(O)ccc12` [7-HF, 7-Hydroxyflavone], the activity at 50 µM with HL-60 cells [1] came to 56%. Besides, the “effect on intracellular GSH (words)” value in the data set with A549 cells [2] (A549 cells) was “almost as effective as chrysin”. Besides, the activity at 25 µM with A549 cells [2] (setting [10]) is 58.1 ± 1.4%; in the data set with A549 cells [2] (setting [11]), under 5%; in the data set with PC-3 cells [6] (PC-3, 25 μM), 63%. In the data set with A549 cells [3], the LDH release, % of control at 75 µM was 113%. Further, the LDH release, % of control at 50 µM is 96% with PC-3 cells [4] and 113% with HL-60 cells [5] (setting [8]).

On to `Oc1cc(O)c2c(c1)O[C@H](c1ccc(O)c(O)c1)[C@H](O)C2` [Epicatechin, (−)-epicatechin], for which the activity at 75 µM in the data set with HL-60 cells [1] (HL-60, 75 μM) came out at 90%; with A549 cells [2] (setting [9]) it was 47%. In addition, in the data set on A549 cells [3], the LDH release, % of control at 75 µM was found to be 104%. In addition, the results for the LDH release, % of control at 50 µM in the data set with PC-3 cells [4] and in the data set on HL-60 cells [5] (setting [8]) were 88% and 76%, respectively. In addition, in the data set with PC-3 cells [6] (PC-3, 50 μM), the activity at 50 µM worked out at 115%.

In the case of `O=c1cc(-c2ccccc2)oc2ccccc12` [Flavone, flavone], the activity at 50 µM with HL-60 cells [1] turned out to be 85%. The activity at 25 µM in the data set on A549 cells [2] (setting [10]) was 89.7 ± 0.6%; with A549 cells [2] (4 h, read-out: Intracellular GSH levels, % compared to control), 29.7 ± 4.8%; in the data set with A549 cells [2] (setting [11]), under 5%; in the data set with PC-3 cells [6] (PC-3, 25 μM) it was 84%. For the same compound, the LDH release, % of control at 75 µM with A549 cells [3] is 164%. Besides, the LDH release, % of control at 50 µM in the data set with PC-3 cells [4] amounted to 91%; in the data set with HL-60 cells [5] (setting [8]), 116%.

As to `COc1cc2c(cc1O)CC[C@@H]1[C@@H]2CC[C@]2(C)[C@@H](O)CC[C@@H]12` [2-ME, 2-methoxyestradiol, reference compound], the “Int. GSH % con.” value in the data set with HL-60 cells [1] (HL-60, 25 μM) was found to be 41 % con; with A549 cells [2] (A549, 50 μM, 24 hours treatment) it was 49 % con; in the data set with PC-3 cells [6] (PC-3, 25 μM) it was 68 % con. In addition, the “LDH rel. % con.” value with A549 cells [3] was 150 % con; with PC-3 cells [4], 128 % con; in the data set with HL-60 cells [5] (HL-60, 25 μM, 48 hours treatment) it was 265 % con.

As to `C=C(C)[C@H]1Cc2c(ccc3c2O[C@@H]2COc4cc(OC)c(OC)cc4[C@@H]2C3=O)O1` [Rotenone, reference compound], the “effect on intracellular GSH (words)” value with HL-60 cells [1] is “relatively effective for depleting GSH”. Besides, the activity at 25 µM was under 5% in the data set on HL-60 cells [1] (HL-60, 25 μM) and 74% in the data set with PC-3 cells [6] (PC-3, 25 μM). The activity at 50 µM with A549 cells [2] (setting [7]) is 53%. For the same compound, in the data set on A549 cells [3], the LDH release, % of control at 75 µM came out at 170%. The LDH release, % of control at 50 µM with PC-3 cells [4] came out at 180%. Further, the LDH release, % of control at 25 µM with HL-60 cells [5] (Homo sapiens, HL-60, 25 μM, 48 hours treatment, read-out: LDH rel. % con.) is 421%.

`O=c1c(O)c(-c2cc(O)c(O)c(O)c2)oc2cc(O)cc(O)c12` [Myricetin]: the “Int. GSH % con.” value came out at 27 % con in the data set on HL-60 cells [1] (HL-60, 75 μM); 55 % con with A549 cells [2] (A549, 75 μM, 24 hours treatment); 111 % con in the data set on PC-3 cells [6] (PC-3, 50 μM). Moreover, the “LDH rel. % con.” value in the data set on A549 cells [3] came to 206 % con; in the data set on PC-3 cells [4] it was 93 % con; in the data set with HL-60 cells [5] (HL-60, 50 μM, 48 hours treatment), 139 % con.
